Data on twelve compounds can be found in PMC5242521 (PLoS ONE, 2017).

One may read the inhibition as the change of the read-out against control, counted positive when it falls. A low value points to a weak effect.

The target in series [1] is T1, OCT1 (Homo sapiens, UniProt O15245).
T1 sequence (O15245 1-554): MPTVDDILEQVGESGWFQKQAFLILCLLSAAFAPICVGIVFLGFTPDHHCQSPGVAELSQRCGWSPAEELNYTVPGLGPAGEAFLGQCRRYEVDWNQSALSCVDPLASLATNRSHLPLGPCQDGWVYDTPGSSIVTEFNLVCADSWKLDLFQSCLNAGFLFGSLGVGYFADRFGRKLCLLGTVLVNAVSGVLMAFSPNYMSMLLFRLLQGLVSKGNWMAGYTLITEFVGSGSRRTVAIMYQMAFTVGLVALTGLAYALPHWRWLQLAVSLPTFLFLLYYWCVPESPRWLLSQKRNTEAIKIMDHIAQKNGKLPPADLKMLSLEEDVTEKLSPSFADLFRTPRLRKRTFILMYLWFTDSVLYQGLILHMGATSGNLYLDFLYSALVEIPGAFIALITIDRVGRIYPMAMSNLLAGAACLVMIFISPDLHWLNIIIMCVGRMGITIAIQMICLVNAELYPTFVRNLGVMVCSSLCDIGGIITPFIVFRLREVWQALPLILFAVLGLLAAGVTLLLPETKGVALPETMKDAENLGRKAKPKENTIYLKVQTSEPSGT
Put plainly: in vitro. Conditions: for inhibition at 100 μM: human; for effect on OCT1 activity: pyrethroid 100 μM, DAPI. The procedure:
(§1) The effects of pyrethroids on activity of ABC and SLC transporters were determined through measuring cellular accumulation or retention of fluorescent or radiolabeled reference substrates for transporters, in the presence or absence of reference inhibitors, as previously described. The nature of cells and reference substrates and inhibitors used for transport assays are summarized in S3 Table.
(§2) The nature of substrates and reference inhibitors and the incubation times with substrates, that varied according to the transporter, were selected in agreement with previous studies and are indicated in S3 Table. The total incubation volume with substrates was 200 μL/well. […] An aliquot of cell lysate (5 μL) was then taken for determining cellular protein content by the Bradford method.
(§3) Intracellular concentrations of reference substrates were initially expressed as fluorescence arbitrary units (for fluorescent dye substrates) or as moles (for radiolabeled substrates) and normalized to cellular protein content, determined by the Bradford method. They were finally used for calculating percentage of transporter activity, according to the following equations [41, 45]: %ABCtransporter activity=([Substrateref inh]-[Substratepyrethroid])×100/([Substrateref inh]-[Substratecontrol]) (1) %SLC transporter activity=([Substratepyrethroid]-[Substratref inh])×100/([Substratecontrol]-[Substrateref inh]) (2) with [Substratepyrethroid] = cellular concentration of reference substrate in the presence of pyrethroid, [Substrateref inh] = cellular concentration of reference substrate in the presence of reference inhibitor and [Substratecontrol] = cellular concentration of reference substrate in control cells not exposed to pyrethroid or reference inhibitor.
(§4) The initial tested concentration of pyrethroids was 100 μM. […] Such concentrations were calculated using GraphPad Prism software (GraphPad Software, La Jolla, CA), through nonlinear regression based on the four parameter logistic function using the following equations: […]

For series [2], the target named is T2, OCT2 (Homo sapiens, UniProt O15244).
T2 sequence (O15244 1-555): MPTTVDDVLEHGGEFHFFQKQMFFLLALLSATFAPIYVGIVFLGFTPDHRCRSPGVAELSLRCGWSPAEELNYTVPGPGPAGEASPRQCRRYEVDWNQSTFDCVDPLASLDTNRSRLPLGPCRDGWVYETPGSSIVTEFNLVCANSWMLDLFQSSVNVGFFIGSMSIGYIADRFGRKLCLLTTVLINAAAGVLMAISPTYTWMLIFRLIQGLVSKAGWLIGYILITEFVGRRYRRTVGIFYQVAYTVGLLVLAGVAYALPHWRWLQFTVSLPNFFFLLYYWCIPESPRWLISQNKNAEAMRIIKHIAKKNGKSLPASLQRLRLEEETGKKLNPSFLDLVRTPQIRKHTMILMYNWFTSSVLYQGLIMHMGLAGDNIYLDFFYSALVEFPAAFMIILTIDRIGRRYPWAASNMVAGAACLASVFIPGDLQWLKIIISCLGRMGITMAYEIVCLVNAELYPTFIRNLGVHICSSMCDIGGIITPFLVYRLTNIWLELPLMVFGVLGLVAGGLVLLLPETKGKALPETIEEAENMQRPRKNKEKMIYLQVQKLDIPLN
The series is described as follows: OCT2 activity: rhodamine 123 accumulation in HEK-OCT2 cells. The note with it: human. Here is the method: as §1, §2, §3, §4

For series [3], the target named is P-gp (Homo sapiens, UniProt P08183). Put plainly: P-gp activity: rhodamine 123 accumulation in MCF7R cells. Conditions: pyrethroid 100 μM. The procedure: as §1
P-gp (Homo sapiens, UniProt P08183), sequence (P08183 whole entry): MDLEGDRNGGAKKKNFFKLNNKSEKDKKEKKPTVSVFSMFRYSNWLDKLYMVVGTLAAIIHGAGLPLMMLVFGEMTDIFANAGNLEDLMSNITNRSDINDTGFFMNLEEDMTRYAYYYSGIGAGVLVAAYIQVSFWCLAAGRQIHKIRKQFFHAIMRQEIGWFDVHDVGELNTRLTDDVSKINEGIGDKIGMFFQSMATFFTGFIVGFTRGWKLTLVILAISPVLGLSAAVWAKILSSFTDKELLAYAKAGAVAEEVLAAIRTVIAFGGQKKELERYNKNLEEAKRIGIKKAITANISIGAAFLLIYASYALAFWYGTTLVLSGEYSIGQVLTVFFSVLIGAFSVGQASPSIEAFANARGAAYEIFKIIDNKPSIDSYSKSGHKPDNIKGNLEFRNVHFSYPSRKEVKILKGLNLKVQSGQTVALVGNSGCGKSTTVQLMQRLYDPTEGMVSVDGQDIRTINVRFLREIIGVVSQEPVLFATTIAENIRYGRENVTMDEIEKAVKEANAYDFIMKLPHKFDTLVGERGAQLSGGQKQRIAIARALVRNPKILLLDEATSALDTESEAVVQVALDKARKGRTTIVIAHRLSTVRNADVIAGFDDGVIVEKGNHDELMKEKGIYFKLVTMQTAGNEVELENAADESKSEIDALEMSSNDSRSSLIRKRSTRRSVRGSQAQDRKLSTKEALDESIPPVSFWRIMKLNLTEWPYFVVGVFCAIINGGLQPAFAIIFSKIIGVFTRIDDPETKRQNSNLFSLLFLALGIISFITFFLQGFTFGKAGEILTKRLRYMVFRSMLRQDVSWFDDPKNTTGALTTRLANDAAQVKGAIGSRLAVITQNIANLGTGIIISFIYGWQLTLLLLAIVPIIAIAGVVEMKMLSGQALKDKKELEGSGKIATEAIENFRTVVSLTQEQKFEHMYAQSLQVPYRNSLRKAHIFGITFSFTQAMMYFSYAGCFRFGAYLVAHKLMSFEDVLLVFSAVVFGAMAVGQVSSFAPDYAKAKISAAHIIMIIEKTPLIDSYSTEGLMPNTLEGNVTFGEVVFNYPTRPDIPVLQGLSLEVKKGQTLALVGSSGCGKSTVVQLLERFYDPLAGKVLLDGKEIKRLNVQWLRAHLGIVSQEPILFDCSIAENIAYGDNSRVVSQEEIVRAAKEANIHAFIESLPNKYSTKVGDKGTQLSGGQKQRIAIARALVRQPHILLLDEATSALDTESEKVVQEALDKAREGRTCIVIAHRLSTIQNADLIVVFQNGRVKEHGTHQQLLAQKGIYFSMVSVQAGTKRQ
(§5) For accumulation assays (performed for all transporters, excepted BCRP), transporter-expressing cells usually cultured in 48-well plates were first incubated at 37°C with reference substrates in the absence (control) or presence of pyrethroids or reference inhibitors, in a well-defined transport assay medium, consisting of 136 mM NaCl, 5.3 mM KCl, 1.1mM KH2PO4, 0.8 mM MgSO4, 1.8 mM CaCl2, 10 mM HEPES, 11 mM D-glucose and adjusted to pH = 7.4 (excepted for MATE transporter assays, for which pH was set to 8.4). The nature of substrates and reference inhibitors and the incubation times with substrates, that varied according to the transporter, were selected in agreement with previous studies and are indicated in S3 Table. The total incubation volume with substrates was 200 μL/well. After washing twice in phosphate-buffered saline (PBS) (200 μL/well/washing), cells were lysed in distilled water (155 μL/well). An aliquot of cell lysate (5 μL) was then taken for determining cellular protein content by the Bradford method. The rest of lysate (150 μL/well) was used for measuring intracellular accumulation of reference substrates by scintillation counting or spectrofluorimetry using a SpectraMax Gemini SX spectrofluorometer (Molecular Devices, Sunnyvale, CA, USA) (excitation and emission wavelengths were 485 and 535 nm, respectively, for rhodamine 123 and fluorescein, and 355 and 460 nm, respectively, for DAPI).
as §3, §4

The subject of series [4] is P-gp. Conditions: ref [26], [27]; cited from earlier work.
In series [5] the target is T1, OCT1. Put plainly: Trans-stimulation assay of TEA uptake in OCT1-transfected HEK293 cells. It is filed as cell-based. Conditions: pre-loading 60 min with 100 μM pyrethroid or 2 mM unlabeled TEA; HEK-OCT1 cells. Here is the method:
Trans-stimulation assays were performed as previously described. Briefly, OCT1-transfected HEK293 cells were first preloaded with 2 mM unlabeled TEA or 100 μM pyrethroid for 60 min at 37°c in the transport assay medium described above. After washing twice with PBS, cells were next re-incubated in transport assay medium containing 29 μM [1-^14C]-TEA for 5 min at 37°C. After washing twice with PBS, cells were lysed in distilled water and intracellular accumulation of [1-^14C]-TEA was then determined by scintillation counting.
Intracellular accumulation of TEA was then determined by scintillation counting. […] After washing, cells were next re-incubated with 29 μM [1-^14C]-TEA for 5 min at 37°C. Intracellular accumulation of [1-^14C]-TEA was then determined by scintillation counting.

Details of series [6]: method as in PMID 12708229. Conditions: human subjects environmentally exposed; ref [70]; cited from earlier work.
Series [7] addresses T3, OAT3 (Homo sapiens, UniProt Q8TCC7).
T3 sequence (Q8TCC7 1-542): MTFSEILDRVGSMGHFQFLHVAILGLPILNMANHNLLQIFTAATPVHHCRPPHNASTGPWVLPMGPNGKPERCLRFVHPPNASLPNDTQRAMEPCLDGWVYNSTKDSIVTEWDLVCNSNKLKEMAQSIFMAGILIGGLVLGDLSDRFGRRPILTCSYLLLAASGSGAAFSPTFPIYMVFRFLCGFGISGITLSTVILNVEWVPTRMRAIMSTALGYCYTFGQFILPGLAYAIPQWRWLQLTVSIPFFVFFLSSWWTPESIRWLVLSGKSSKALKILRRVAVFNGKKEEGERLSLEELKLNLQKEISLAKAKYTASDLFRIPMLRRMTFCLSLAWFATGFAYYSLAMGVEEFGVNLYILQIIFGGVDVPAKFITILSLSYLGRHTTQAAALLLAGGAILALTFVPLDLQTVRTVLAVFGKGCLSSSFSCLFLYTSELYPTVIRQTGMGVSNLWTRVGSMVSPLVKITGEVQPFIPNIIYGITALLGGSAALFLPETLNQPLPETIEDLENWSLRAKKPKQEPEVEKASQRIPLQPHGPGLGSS
The series is described as follows: OAT3 activity: fluorescein accumulation in HEK-OAT3 cells. The note with it: human, pH 7.4. The procedure:
as §1, §5, §3, §4

Series [8] deals with T4, OAT1 (Homo sapiens, UniProt Q4U2R8).
T4 construct: host or cells: HEK293
T4 sequence (Q4U2R8 1-563): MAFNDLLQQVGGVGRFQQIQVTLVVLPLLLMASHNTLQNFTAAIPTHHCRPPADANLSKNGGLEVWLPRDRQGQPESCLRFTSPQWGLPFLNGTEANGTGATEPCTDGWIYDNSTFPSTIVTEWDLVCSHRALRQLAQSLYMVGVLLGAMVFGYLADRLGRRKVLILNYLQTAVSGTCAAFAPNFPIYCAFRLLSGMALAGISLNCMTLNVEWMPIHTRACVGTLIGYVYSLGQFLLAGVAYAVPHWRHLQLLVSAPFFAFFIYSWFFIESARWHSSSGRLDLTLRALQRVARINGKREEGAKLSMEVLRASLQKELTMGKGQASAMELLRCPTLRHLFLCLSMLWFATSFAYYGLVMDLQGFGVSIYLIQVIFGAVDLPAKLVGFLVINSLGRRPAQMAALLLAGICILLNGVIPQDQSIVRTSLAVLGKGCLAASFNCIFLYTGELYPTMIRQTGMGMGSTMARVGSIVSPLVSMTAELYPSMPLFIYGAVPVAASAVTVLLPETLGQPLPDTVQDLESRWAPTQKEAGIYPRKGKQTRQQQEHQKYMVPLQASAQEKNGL
The series is described as follows: OAT1 activity: fluorescein accumulation in HEK-OAT1 cells. The note with it: human, pH 7.4; pyrethroid 100 μM; HEK-OAT1 cells, fluorescein. It is filed as cell-based.
Procedure: The effects of pyrethroids on activity of ABC and SLC transporters were determined through measuring cellular accumulation or retention of fluorescent or radiolabeled reference substrates for transporters, in the presence or absence of reference inhibitors, as previously described [41].
The total incubation volume with substrates was 200 μL/well. […] An aliquot of cell lysate (5 μL) was then taken for determining cellular protein content by the Bradford method [44].
Intracellular concentrations of reference substrates were initially expressed as fluorescence arbitrary units (for fluorescent dye substrates) or as moles (for radiolabeled substrates) and normalized to cellular protein content, determined by the Bradford method [44]. They were finally used for calculating percentage of transporter activity, according to the following equations [41, 45]: %ABCtransporter activity=([Substrateref inh]-[Substratepyrethroid])×100/([Substrateref inh]-[Substratecontrol]) (1) %SLC transporter activity=([Substratepyrethroid]-[Substratref inh])×100/([Substratecontrol]-[Substrateref inh]) (2) with [Substratepyrethroid] = cellular concentration of reference substrate in the presence of pyrethroid, [Substrateref inh] = cellular concentration of reference substrate in the presence of reference inhibitor and [Substratecontrol] = cellular concentration of reference substrate in control cells not exposed to pyrethroid or reference inhibitor.

The mark [9] stands for this setting: HEK-OCT2 cells, pH 7.4, probe rhodamine 123.

Values joined by “and” are separate entries in the source; they are usually repeats but may differ in a detail not shown here. Equal entries are not always repeated.

In series [1] (pH 7.4), `CC1(C)C(C(=O)OC(C#N)c2cccc(Oc3ccccc3)c2)C1(C)C` (centres unmarked) [fenpropathrin] registered an inhibition at 100 μM of 30.1 to 48.8%.

As to `Cc1c(COC(=O)[C@@H]2[C@H](/C=C(\Cl)C(F)(F)F)C2(C)C)cccc1-c1ccccc1` (racemic) [bifenthrin], the “effect on OCT1 activity” value in series [1] is listed as “failed to significantly alter”.

In series [1] (pH 7.4), `CC1(C)[C@H](C(=O)O[C@H](C#N)c2cccc(Oc3ccccc3)c2)[C@@H]1/C=C(\Cl)C(F)(F)F` (racemic) [λ-cyhalothrin] came in with an inhibition at 100 μM of 30.1 to 48.8%.

With `CC1(C)[C@H](C=C(Cl)Cl)[C@H]1C(=O)OCc1cccc(Oc2ccccc2)c1` [trans-permethrin], the inhibition at 100 μM in series [1] (pH 7.4) was 30.1 to 48.8%; in series [2] (setting [9]), around 25%.

As to `CC1(C)[C@H](C(=O)OCc2cccc(Oc3ccccc3)c2)[C@@H]1C=C(Cl)Cl` [cis-permethrin], the “effect on OCT1 activity” value in series [1] is “failed to significantly alter”.

Regarding `CC(C)[C@H](Nc1ccc(C(F)(F)F)cc1Cl)C(=O)OC(C#N)c1cccc(Oc2ccccc2)c1` (some centres unmarked) [fluvalinate], the “effect on P-gp activity” value in series [3] is recorded as “did not alter”. In series [4], the “effect on P-gp activity or ATPase activity” value was “inhibit”.

Consider `CC1(C)[C@H](C=C(Cl)Cl)[C@H]1C(=O)O[C@@H](C#N)c1cccc(Oc2ccccc2)c1` [β-cypermethrin], for which the inhibition at 100 μM is 30.1% in series [1] (HEK-OCT1 cells, pH 7.4, probe DAPI) and around 25% in series [2] (setting [9]).

Turning to `CC[N+](CC)(CC)CC` [TEA, tetra-ethylammonium bromide, reference compound], the “effect of pre-loading on radiolabeled TEA uptake (trans-stimulation assay)” value in series [5] was “trans-stimulation”.

In the case of `Cc1c(F)c(F)c(COC(=O)[C@@H]2[C@H](/C=C(\Cl)C(F)(F)F)C2(C)C)c(F)c1F` (racemic) [tefluthrin], the inhibition at 100 μM in series [1] (pH 7.4) was 30.1 to 48.8%; in series [2] (pH 7.4) it was around 25%.

As to `CC1(C)C(C=C(Cl)Cl)C1C(=O)OC(C#N)c1ccc(F)c(Oc2ccccc2)c1` (centres unmarked) [cyfluthrin], the blood concentration in series [6] is < 5 μg/L and < 12.8 nM.

Consider `CC1(C)C(C=C(Cl)Cl)C1C(=O)OC(C#N)c1cccc(Oc2ccccc2)c1` (centres unmarked) [cypermethrin], for which the “effect on P-gp activity” value in series [3] is “did not alter”. Also, in series [6], the blood concentration was < 5 μg/L and < 12.8 nM.

Turning to `CC(C)[C@@H](Nc1ccc(C(F)(F)F)cc1Cl)C(=O)OC(C#N)c1cccc(Oc2ccccc2)c1` (some centres unmarked) [τ-fluvalinate], the “effect on OCT1 activity” value in series [1] is given as “failed to significantly alter”. Besides, the figures for the inhibition at 100 μM in series [7], in series [2] (pH 7.4) and in series [8] were 15.6%, around 25% and 42.8%, respectively.
